# Measured values as given in patent publication US7381731B2, “Pharmaceutical composition comprising citrulline” (Angiogenix, Inc., priority 1994, dated 2008).
# Tests used:
# y^+ transporter = test: y+ transport of [3H]-LA in cells exposed to NOS agonists or NO donors, sodium-free uptake buffer; assay type: cell-based, bovine; conditions: for maximum inhibition of y+ transport: FIG. 16; for inhibition of L-arginine transport: data not shown; for increase of [3H]-LA uptake: Ach 5 μM; for increase of y+ transport of L-arginine / increase of y+ transporter activity from control: SP 1 μM
# Protocol: Effect of NOS agonists on cellular uptake of LA.
# Effect of NO donors on cellular uptake of LA.
# In order to confirm whether the reduction in cellular uptake of [^3H]-LA was due to NO released from SNAP, experiments were performed using another NO donor, DPTA-NONOate. Unlike SNAP, which donates large amounts of NO over a short time period (t1/2˜10 minutes), the use of DPTA-NONOate allows for a slower (t1/2˜5 hours), more sustained release of NO that is constant over time.
# [1] = system: bovine aortic endothelial cells (BAEC); test: Superoxide anion (O2*—) formation in BAEC; assay type: cell-based; conditions: for increase of O2*— production above basal levels: 1 μM; for increase of O2*— production above basal levels / prevention of basal production of O2*—: 60 minute period; for inhibition of O2*— production induced by A-23187: A-23187 1 μM; for inhibition of O2*— production induced by A-23187 / reduction of O2*— induced by SP: concurrent treatment 5×10^−4M; for reduction of O2*— induced by SP: SP 1 μM; for prevention of basal production of O2*—: supplementation 5×10^−4M
# Source text: Cellular superoxide anion formation—Effect of NOS agonists on cellular superoxide anion formation.
# [2] = system: cultured bovine aortic EC; test: DOX as NOS agonist: NO production by oxyhemoglobin/methemoglobin conversion and NO sensitive electrode; assay type: cell-based
# Protocol: In fact, a wide variety of vasoactive agents (e.g., bradykinin, muscarinic agonists and growth factors) which increase tPA levels are also agonists of nitric oxide synthase (NOS). DOX activity as a NOS agonist was investigated in cultured bovine aortic EC using two methods to assess NO production: conversion of oxyhemoglobin to methamoglobin and a NO sensitive electrode.
# For all experiments described herein, human coronary artery endothelial cells (passage 3-5-Clonetics) were maintained at 37°, […] and 5% CO2 in Medium 199 (M199) supplemented with 5% fetal bovine serum (FBS, Hyclone), 10% iron supplemented FBS (Hyclone), thymidine ([…]), penicillin G (100 U mL^−1) and streptomycin (100 μmL^−1). […] Acetylcholine, an eNOS agonist, was used in all experiments as the positive control at concentrations of 10^−7 and 10^−6 M.
# Nitric Oxide Measurements. Methemoglobin—The effect of DOX on NO production in EC was determined using a photometric assay for conversion of oxyhemoglobin to methemoglobin. […] Perfusate is then directed into a flow-through cuvette in a dual wavelength spectrophotometer and change in absorbency (415/405 nm) is measured. Experimental stimulation was carried out by 3 min infusion periods of DOX added to buffer perfusion to yield final concentrations of 10^−7 and 10^−6 M. For analysis, we determined the area under the curve for the change in absorbency response/min caused by DOX assuming a one to one correspondence for NO and metHb production, the known stoichiometric balance for this reaction. NO production was measured with a NO meter connected to a polargraphic NO electrode as previously described. The NO sensor probe will be inserted vertically into 24-well plates containing confluent EC such that the tip of the electrode is submerged 2 mm under the surface of medium (above −1 ml). The reaction was initiated when desired concentrations of DOX are added to the well. Calibrations were performed with S-nitroso-acetyl-penicillamine.
# [3] = system: bovine aortic endothelial cells (BAEC); test: NO production by endothelial cells on beads, photometric oxyhemoglobin to methemoglobin assay; assay type: cell-based
# Source text: NO oxidize; oxyhemoglobin (HbO2) to methemoglobin (metHb) in the following reaction HbO2+NO−metHb+NO3. The amount of NO produced by endothelial cells was quantified by measuring the change in absorbance as HbO2 oxidizes to metHb. Oxyhemoglobin has a absorbance peak at 415 nm, while methb has a 406 nm absorbance peak. By subtracting the absorbance of metHb from HbO2, the concentration of NO can be assessed. The general method was patterned after that of Feelisch et al., (Biochem. and Biophy. Res. Comm. 1991; 180, Nc I:286-293).
# The effects of pravastatin on activity of endothelial cells in producing NO were compared with those of actetylcholine, which is known to specifically stimulate NO production by NOS activity.
compound,measurement,setting,value
"CC(=O)N[C@@H](C(=O)O)C(C)(C)SN=O (racemic) [SNAP, s-nitroso-acetyl-penicillamin]",increase of activity of the y+ transporter,"y^+ transporter; 200 μM SNAP (0.4 μM NO), ten minutes of exposure",37%
same,elevation of activity of the y+ transporter,"y^+ transporter; 200 μM SNAP, 30 minute exposure",not seen
same,reduction of uptake of [3H]-LA,"y^+ transporter; 200 μM SNAP, 1 hour",22%
same,reduction of uptake of [3H]-LA,"y^+ transporter; 200 μM SNAP, 2 hour exposure",46%
same,reduction of uptake of [3H]-LA,"y^+ transporter; 200 μM SNAP, 3 hour exposure",45%
same,reduction of uptake of [3H]-LA,"y^+ transporter; 200 μM SNAP, 5 hour exposure",36%
CNc1ccc2oc(C[C@H]3O[C@@]4(CC[C@H]3C)O[C@H]([C@H](C)C(=O)c3ccc[nH]3)[C@H](C)C[C@H]4C)nc2c1C(=O)O [A-23187],increase of O2*— production above basal levels,[1],2.5 fold
"COc1cc2nc(N3CCN(C(=O)C4COc5ccccc5O4)CC3)nc(N)c2cc1OC (centres unmarked) [DOX, Doxazosin]",increase in NO production,"[2]; DOX 10^−7-10^−5 M, dose-related",64-145%
"NCCCN(CCCN)/[N+]([O-])=N/O [DPTA-NONOate, dipropylenetriamine NONOate]",maximum inhibition of y+ transport,"y^+ transporter; 0.01 μM, 2 hour exposure",20%
same,effect on y+ system,"y^+ transporter; 1 μM DPTA-NONOate (2 μM NO), 15 and 30 min",no significant effect
same,inhibition of L-arginine transport,"y^+ transporter; 1 μM DPTA-NONOate (2 μM NO), 1 hour exposure",22%
same,inhibition of L-arginine transport,"y^+ transporter; 1 μM DPTA-NONOate (2 μM NO), 2 hour exposure",24%
same,inhibition of L-arginine transport,"y^+ transporter; 1 μM DPTA-NONOate (2 μM NO), 4 hour exposure",29%
same,maximum inhibition of y+ transport,"y^+ transporter; 1 μM, 2 hour exposure",24%
same,maximum inhibition of y+ transport,"y^+ transporter; 10 μM, 2 hour exposure",44%
"COC(=O)[C@@H](N)CCCNC(=N)N[N+](=O)[O-] [L-NAME, n-ω-nitro-L-arginine methyl ester]",reduction of acetylcholine-induced production of NO,[3]; buffer containing L-NAME 10^−3 M,80%
same,NO production in response to pravastatin,[3]; superfusion with L-NAME 10^−3 M,blunted
same,inhibition of O2*— production induced by A-23187,[1],58%
same,reduction of O2*— induced by SP,[1],81%
same,prevention of basal production of O2*—,[1],100%
same,block of increase in NO to ACH,"[2]; ACH 10^−6 M, prior L-NAME",86%
same,block of increase in NO to DOX,"[2]; DOX 10^−6 M, prior L-NAME 5×10^−4 M",72%
N=C(N)NCCC[C@H](N)C(=O)O [L-arginine],acetylcholine-elicited production of NO,[3]; L-NAME buffer replaced with buffer containing L-arginine 10^−3 M,returned to control levels
same,NO production in response to pravastatin,[3]; subsequent perfusion with buffer containing L-arginine 10^−3 M,return in NO production to a level above the amount induced by the Pravastatin in control (basis) buffer
same,inhibition of O2*— production induced by A-23187,[1],60%
same,reduction of O2*— induced by SP,[1],51%
same,prevention of basal production of O2*—,[1],not
same,accentuation of NO responses to ACH,[2]; supplemental L-arginine,72%
same,accentuation of NO responses to DOX,[2]; supplemental L-arginine 5×10^−4 M,65%
CC(=O)OCC[N+](C)(C)C [acetylcholine],increase of [3H]-LA uptake,y^+ transporter; 2 minute exposure,22%
same,increase of [3H]-LA uptake,y^+ transporter; 15 minute (maximum),27%
same,increase of [3H]-LA uptake,y^+ transporter; 30 minutes,16%
same,increase of [3H]-LA uptake,y^+ transporter; 60 minutes,15.5%
CC[C@H](C)C(=O)O[C@H]1C[C@H](O)C=C2C=C[C@H](C)[C@H](CC[C@@H](O)C[C@@H](O)CC(=O)O)[C@H]21 [pravastatin],increment in NO response to the 10^−5 M concentration,"[3]; pravastatin 10^−5 M, larger than that of acetylcholine",~3 X
substance P [SP],increase of O2*— production above basal levels,[1],3.5 fold
same,increase of y+ transport of L-arginine,y^+ transporter; 15-minutes exposure,24%
same,increase of y+ transport of L-arginine,y^+ transporter; 30 minutes,24%
same,increase of y+ transport of L-arginine,y^+ transporter; 60 minutes,21%
same,increase of y+ transporter activity from control,y^+ transporter; 2 hour exposure,34%
same,increase of y+ transporter activity from control,y^+ transporter; 3 hour exposure,27%
same,increase of y+ transporter activity from control,y^+ transporter; 5 hour exposure,21%
